Measured values: patent publication US7358417B2, “Transgenic organism expressing fungal MRP-like ABC transporters” (priority 2001, dated 2008)
“And” between values parts separate entries of the source, which are not always exact repeats. Equal entries are not always repeated.

Assays:
[1] = tested on: vacuoles of YCF1 transformed plants; assay: Accumulation of GS-associated compounds in vacuoles separated from YCF1 transformed Arabidopsis
Experimental: (§1) To Investigate that these phenomena occurred due to the fact that YCF1 proteins transport heavy metals into vacuoles, the vacuoles were separated from YCF1 transformed plants and wild-type plants, and experiments of transporting cadmium and herbicides were carried out.

[2] = tested on: vacuoles of wild-type plants; assay: Accumulation of GS-associated compounds in vacuoles separated from wild-type Arabidopsis
Experimental: as §1

[3] = tested on: ycf1-pESC yeast, wt-pESC yeast, ycf1-YCF1 yeast; assay: Heavy metal content of recombinant yeasts by atomic absorption spectrometer; type: cell-based, Saccharomyces cerevisiae; details: one day
Experimental: Three kinds of yeasts (ycf1-pESC yeast, wt-pESC yeast, and ycf1-YCF1 yeast) were each cultured in 1/2 galactose solid media containing 1.5 mM lead or 15 uM cadmium for one day, and the cultured yeasts were scraped for harvest. The harvested yeasts were put into 1 ml of concentrated nitric acid, digested for 200° C. for about 6 hours, and then diluted with 10 ml of 0.5 N nitric acid, and the amount of heavy metals contained in the yeasts was measured using an atomic absorption spectrometer (AAS). The measurement results for ycf1-pESC yeast, wt-pESC yeast, and ycf1-YCF1 yeast are represented by graph In FIG. 3.

YCF1 Arabidopsis plants = assay: Accumulation of heavy metals in transformed Arabidopsis plants; type: in vivo, Arabidopsis thaliana; details: three weeks
Experimental: YCF1 Arabidopsis plants obtained in Example 5 and wild-type Arabidopsis transformed with empty vector, PBI, were cultivated in 1/2 MS media containing lead (0.75 mM) and cadmium (70 μM) for three weeks to investigate accumulation of heavy metals.

Arabidopsis plants = assay: Growth of Arabidopsis plants in the presence of noxious materials; type: in vivo, Arabidopsis thaliana; details: 60 μM pentavalent arsenic three weeks, 60 μM CDNB two months
yeast = assay: Growth of yeast on lead or cadmium-containing media; type: cell-based, Saccharomyces cerevisiae; details: for Growth of ycf1-YCF1 yeast in media containing lead or cadmium: 1.8 mM lead or 50 uM cadmium, galactose media; for Growth of ycf1 mutant yeast as compared with wild-type yeast: 3 mM lead or 0.1 mM cadmium, three days
Experimental: Wild-type yeast (DTY 165) and ycf1 mutant yeast (DTY 167, MATa ura3 leu2 his3 trp3 lys2 suc2 ycf::hisG) were cultured in YPD liquid media (1% yeast extract, 2% peptone, 2% dextrose) at 30° C. until OD600 reached 1-2, and then yeast cells of the same number (1×10^2, 1×10^3, 1×10^4 or 1×10^5) were cultured in half-diluted YPD solid media containing 3 mM lead at 30° C. for three days. Likewise, they were also cultured in half-diluted YPD solid media containing 0.1 mM cadmium.
The ycf1-pESC yeast, wt-pESC yeast, and ycf1-YCF1 yeast 25 constructed above were each cultured in galactose media (2% galactose, 1% of 0.17% YNB, 0.13% dropout powder, 0.5% ammonium sulfate) to which 1.8 mM lead was added, or in galactose media to which 50 uM of cadmium was added. Control group was cultured in galactose media without heavy metals. Growth degree of each of the recombinant ycf1-pESC yeast, wt-pESC yeast, and ycf1-YCF1 yeast in lead or cadmium-containing media is shown in the photographs of FIG. 2.
Resistance to lead in wt-v yeast, yhl035c-v yeast, and YHL035C yeast was tested according to methods substantially similar to the above Example 3-2.

poplar = assay: Growth of poplar plants in the presence of lead; type: in vivo, Populus alba ×P. glandulosa
Experimental: The leaf fragments and stalks of YCF1 poplar plants prepared in Example 5 were mounted on callus-inducible media containing 500 ppm of lead, and cultivated for two weeks to Investigate the difference In their growth. As a control, wild-type poplar plants, which were not transformed, were treated in the same manner, and the results of the experiments are shown in FIG. 10.
YHL035C transformed poplar plants prepared in Example 5 were transferred to a pot and allowed to grow into pot seedlings. These pot seedlings were transferred to soil that was dipped into a solution containing 500 ppm of […].

[4] = YCF1 transformed vacuoles, +MgATP

## N[C@@H](CCC(=O)N[C@@H](CSc1ccc([N+](=O)[O-])cc1[N+](=O)[O-])C(=O)NCC(=O)O)C(=O)O [DNB − GS]
[1]; +MgATP
  Accumulation in YCF1 transformants relative to wild-type (in words): a little higher accumulation than wild-type
[1]; [4]
  Accumulation in the vacuoles, YCF1 Transformed Plants, +MgATP: 33 ± 1.2 pmol/1 ul vacuole/20 min
[1]; YCF1 transformed vacuoles, −MgATP
  Accumulation in the vacuoles, YCF1 Transformed Plants, −MgATP: 24 ± 0.9 pmol/1 ul vacuole/20 min
[2]
  Accumulation in the vacuoles, Wild-type Plants, +MgATP: 28 ± 1.3 pmol/1 ul vacuole/20 min
[2]; −MgATP
  Accumulation in the vacuoles, Wild-type Plants, −MgATP: 21 ± 1.1 pmol/1 ul vacuole/20 min

## N[C@@H](CCC(=O)N[C@@H](CS)C(=O)NCC(=O)O)C(=O)O [GSH]
[1]; [4]
  Accumulation in the vacuoles, YCF1 Transformed Plants, +MgATP: 69 ± 1.1 pmol/1 ul vacuole/20 min
[2]
  Accumulation in the vacuoles, Wild-type Plants, +MgATP: 70 ± 2.2 pmol/1 ul vacuole/20 min

## [Cd] [cadmium]
[3]; 15 uM cadmium
  Accumulation of cadmium in wt-pESC yeast and ycf1-YCF1 yeast compared with ycf1-pESC yeast: high accumulation
YCF1 Arabidopsis plants; 70 μM cadmium
  Accumulation of cadmium in YCF1 Arabidopsis plants relative to PBI: 2 fold and 3 fold
Arabidopsis plants; cadmium various concentrations
  Growth of wild-type Arabidopsis: more chlorosis in leaves
yeast
  Growth of ycf1-YCF1 yeast in media containing lead or cadmium: grew better than ycf1-pESC yeast or wt-pESC yeast
  Growth of ycf1 mutant yeast as compared with wild-type yeast: grew little

## [Pb] [lead]
[3]; 1.5 mM lead
  Accumulation of lead in wt-pESC yeast and ycf1-YCF1 yeast relative to ycf1-pESC yeast: ~2 fold
poplar; 500 ppm of lead, two weeks
  Growth in stalk pieces of YCF1 poplar relative to wild-type: ~2 fold
poplar; 500 ppm, four weeks
  Growth of YHL035C transformant poplar in soil containing lead: grew much better than the wild-type
  Growth of wild-type poplar in soil containing lead: grew poorly
YCF1 Arabidopsis plants; 0.75 mM lead
  Accumulation of lead in YCF1 Arabidopsis plants relative to PBI: 2 fold and 1.4 fold
Arabidopsis plants; lead three weeks
  Growth of YCF1 Arabidopsis: less chlorosis In leaves and better growth of roots
yeast; 1.8 mM lead
  Sensitivity of yhl035c-v yeast: more sensitive than wt-v yeast
yeast
  Growth of ycf1-YCF1 yeast in media containing lead or cadmium: grew better than ycf1-pESC yeast or wt-pESC yeast
  Growth of ycf1 mutant yeast as compared with wild-type yeast: decreased
